Data set [1] is described as follows: Dissociation constant, pKa of the compound. The data set is classed as physicochemical.
A short description of data set [2]: Intrinsic clearance in human liver microsomes. Particulars: read-out: CLH. It is filed as ADME. On the technique in general: Microsomes from liver hold many membrane-bound enzymes, among them those of drug oxidation.
A short description of data set [3]: Intrinsic clearance in human hepatocytes. It is filed as ADME, cell-based, Hepatocyte. Particulars: read-out: CLH.

SMILES strings stand for the structures.

Turning to `O=c1[nH]ccc(N[C@H]2CC[C@@H](NCCF)CC2)c1-c1nc2ccccc2[nH]1`, the pKa (as a rule, the negative logarithm of the acid dissociation constant) in data set [1] was determined as 8.8.

With `N[C@H]1CC[C@@H](Nc2cc[nH]c(=O)c2-c2nc3ccccc3[nH]2)CC1`, the CLint scaled in data set [2] was below 15 mL/min/kg; in data set [3], 12 mL/min/kg.

In data set [1], `COCCN[C@H]1CC[C@@H](Nc2cc[nH]c(=O)c2-c2nc3ccccc3[nH]2)CC1` had a pKa of 9.2. Take `O=c1[nH]ccc(N[C@H]2CC[C@@H](NCC(F)(F)F)CC2)c1-c1nc2ccccc2[nH]1`: the pKa in data set [1] was 4.8. In data set [1], `CCN[C@H]1CC[C@@H](Nc2cc[nH]c(=O)c2-c2nc3ccccc3[nH]2)CC1` displayed a pKa of 10.5. On the same count and under the same terms, then `O=c1[nH]ccc(N[C@H]2CC[C@@H](NCC(F)F)CC2)c1-c1nc2ccccc2[nH]1`, with 6.6.

For the origin of these results see ChEMBL document CHEMBL3779778, “Structure-based design and development of (benz)imidazole pyridones as JAK1-selective kinase inhibitors” (Bioorg Med Chem Lett, 2016).
